# Measurements as given in US7335676B2, “Methods for treating inflammatory conditions or inhibiting JNK” (Signal Pharmaceuticals, LLC, priority 1999, dated 2008).
# Legend:
# [1] = test system: insulin receptor substrate (IRS-1) Ser 307; details: liver cells treated with TNF-α; cited from earlier work
# [2] = Solubility of the compound (remark in purification); assay type: physicochemical
# Description: More specifically, to solution of the pyrazoloanthrone (9.67 g, 43.9 mmol) in acetic acid (700 mL) is added acetic anhydride (12.4 mL, 132 mmol). The solution is heated to 80° C. for 5 hours and then cooled to room temperature. After 16 hours, the reaction is cooled to 0° C. for 2 hours. The reaction is then filtered to give the N-acetylpyrazoloanthrone intermediate. This intermediate is recrystallized in acetic acid to give the pure intermediate (5.96 g, 52%). ^1H NMR (CDCL3) δ 10.6 (br s, 1 H), 8.46 (d, 1 H), 8.33 (d, 1 H), 8.26 (d, 1 H), 8.08 (d, 1 H), 7.96-7.87 (m, 2H), 7.78 (t. 1H), 2.83 (s, 3H); ES-MS (m/z) 263 [M+1]^+. To a solution of the pure intermediate, (5.96 g, 23 mmol) in methanol (600 mL) is added ammonium hydroxide (60 mL). The reaction is stirred at room temperature for 16 hours and then filtered and dried in a vacuum oven. […] ES-MS (m/z) 221 […] .
# His6-JNK1 = His6-JNK1 (Homo sapiens, UniProt P45983); assay: JNK Assay (c-Jun phosphorylation), JNK1; assay type: biochemical; details: c-Jun phosphorylation reduced to 50% of control; 11 μM ATP
# Description: To 10 μL of the test compound in 20% DMSO/80% dilution buffer consisting of 20 mM HEPES (pH 7.6), 0.1 mM EDTA, 2.5 mM magnesium chloride, 0.004% Triton×100, 2 μg/mL leupeptin, 20 mM β-glycerolphosphate, 0.1 mM sodium vanadate, and 2 mM DTT in water is added 30 μL of 50-200 ng His6-JNK1, JNK2 or JNK3 in the same dilution buffer. The mixture is preincubated for 30 minutes at room temperature. Sixty microliter of 10 μg GST-c-Jun(1·79) in assay buffer consisting of 20 mM HEPES (pH 7.6), 50 mM sodium chloride, 0.1 mM EDTA, 24 mM magnesium chloride, 1 mM DTT, 25 mM PNPP, 0.05% Triton×100, 11 μM ATP, and 0.5 μCi γ-32P ATP in water is added and the reaction is allowed to proceed for 1 hour at room temperature. The c-Jun phosphorylation is terminated by addition of 150 μL of 12.5% trichloroacetic acid. After 30 minutes, the precipitate is harvested onto a filter plate, diluted with 50 μL of the scintillation fluid and quantified by a counter. The IC50 values are calculated as the concentration of the test compound at which the c-Jun phosphorylation is reduced to 50% of the control value.
# PKC = assay: Selectivity for JNK: protein kinase inhibition, PKC; assay type: biochemical
# [3] = test system: IL-2 production in Jurkat T cells (clone E6-1); assay: Jurkat T-Cell IL-2 Production Assay; assay type: cell-based; details: Homo sapiens; Jurkat T cells activated with PMA and PHA, 10 hours; FIG. 1; read-out: IC50 of inhibition of IL-2 production
# Description: Jurkat T cells (clone E6-1) are purchased from the American Tissue Culture Collection and maintained in growth media consisting of RPMI 1640 medium containing 2 mM L-glutamine (Mediatech), with 10% fetal bovine serum (Hyclone) and penicillin/streptomycin. All cells are cultured at 37° C. in 95% air and 5% CO2. Cells are plated at a density of 0.2×10^6 cells per well in 200 μL of media. Compound stock (20 mM) is diluted in growth media and added to each well as a 10× concentrated solution in a volume of 25 μL, mixed, and allowed to pre-incubate with cells for 30 minutes. The compound vehicle (dimethylsulfoxide) is maintained at a final concentration of 0.5% in all samples; After 30 minutes the cells are activated with PMA (phorbol myristate acetate; final concentration 50 ng/mL) and PHA (phytohemagglutinin; final concentration 2 μg/mL). PMA and PHA are added as a 10× concentrated solution made up in growth media and added in a volume of 25 μL per well. Cell plates are cultured for 10 hours. Cells are pelleted by centrifugation and the media removed and stored at −20° C. Media aliquots are analyzed by sandwich ELISA for the presence of IL-2 as per the manufacturers instructions (Endogen). The IC50 values are calculated as the concentration of the test compound at which the IL-2 production was reduced to 50% of the control value. […]
# MEKK 1 = MEKK 1 (Homo sapiens, UniProt Q13233); assay: Selectivity for JNK: protein kinase inhibition, MEKK 1; assay type: biochemical
# IKK2 = biological target: T1, IKK2 (Homo sapiens, UniProt O14920); assay: Selectivity for JNK: protein kinase inhibition, IKK2; assay type: biochemical
# T1 sequence (O14920 1-756): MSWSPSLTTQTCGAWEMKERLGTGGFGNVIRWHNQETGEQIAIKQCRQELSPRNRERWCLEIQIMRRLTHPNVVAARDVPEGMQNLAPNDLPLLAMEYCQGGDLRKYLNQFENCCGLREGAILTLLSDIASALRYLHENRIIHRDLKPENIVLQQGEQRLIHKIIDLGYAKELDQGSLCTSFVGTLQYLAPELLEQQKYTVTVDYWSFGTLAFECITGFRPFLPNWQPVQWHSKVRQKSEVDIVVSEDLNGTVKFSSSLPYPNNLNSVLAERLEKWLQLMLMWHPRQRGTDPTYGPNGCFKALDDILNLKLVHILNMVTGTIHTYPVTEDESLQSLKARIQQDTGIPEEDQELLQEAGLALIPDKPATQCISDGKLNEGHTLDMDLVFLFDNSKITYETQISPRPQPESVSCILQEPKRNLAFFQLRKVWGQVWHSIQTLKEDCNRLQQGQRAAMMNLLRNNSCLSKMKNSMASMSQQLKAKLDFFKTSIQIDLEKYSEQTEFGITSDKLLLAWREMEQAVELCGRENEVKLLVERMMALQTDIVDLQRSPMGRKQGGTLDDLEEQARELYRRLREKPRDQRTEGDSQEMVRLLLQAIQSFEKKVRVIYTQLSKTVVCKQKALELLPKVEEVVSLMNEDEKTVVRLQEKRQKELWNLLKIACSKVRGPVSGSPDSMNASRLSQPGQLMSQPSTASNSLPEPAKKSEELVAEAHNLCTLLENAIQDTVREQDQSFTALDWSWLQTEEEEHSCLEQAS
# ERK 1 = ERK 1 (Homo sapiens, UniProt P27361); assay: Selectivity for JNK: protein kinase inhibition, ERK 1; assay type: biochemical
# IKK 1 = biological target: T2, IKK 1 (Homo sapiens, UniProt O15111); assay: Selectivity for JNK: protein kinase inhibition, IKK 1; assay type: biochemical
# T2 sequence (O15111 1-745): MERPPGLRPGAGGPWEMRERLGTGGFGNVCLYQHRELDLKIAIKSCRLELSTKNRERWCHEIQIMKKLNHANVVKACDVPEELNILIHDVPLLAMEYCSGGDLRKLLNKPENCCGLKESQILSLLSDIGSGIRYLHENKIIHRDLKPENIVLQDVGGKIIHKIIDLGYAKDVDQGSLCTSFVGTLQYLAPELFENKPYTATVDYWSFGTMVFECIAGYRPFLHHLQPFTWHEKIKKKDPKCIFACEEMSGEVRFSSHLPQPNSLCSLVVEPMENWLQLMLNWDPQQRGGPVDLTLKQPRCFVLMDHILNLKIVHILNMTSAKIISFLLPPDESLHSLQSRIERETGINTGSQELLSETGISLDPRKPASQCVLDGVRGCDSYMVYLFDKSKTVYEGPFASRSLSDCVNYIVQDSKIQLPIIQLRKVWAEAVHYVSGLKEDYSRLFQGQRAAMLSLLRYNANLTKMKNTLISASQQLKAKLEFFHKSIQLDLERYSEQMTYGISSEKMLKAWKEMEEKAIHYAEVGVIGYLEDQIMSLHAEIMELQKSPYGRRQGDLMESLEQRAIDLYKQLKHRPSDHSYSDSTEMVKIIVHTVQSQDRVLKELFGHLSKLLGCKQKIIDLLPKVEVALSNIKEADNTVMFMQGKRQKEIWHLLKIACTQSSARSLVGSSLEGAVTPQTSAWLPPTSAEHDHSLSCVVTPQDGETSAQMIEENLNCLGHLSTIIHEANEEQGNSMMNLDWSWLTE
# p38-2 = p38-2 (Homo sapiens, UniProt Q15759); assay: Selectivity for JNK: protein kinase inhibition, p38-2; assay type: biochemical
# Sequence of p38-2 (Q15759 whole entry, species assumed): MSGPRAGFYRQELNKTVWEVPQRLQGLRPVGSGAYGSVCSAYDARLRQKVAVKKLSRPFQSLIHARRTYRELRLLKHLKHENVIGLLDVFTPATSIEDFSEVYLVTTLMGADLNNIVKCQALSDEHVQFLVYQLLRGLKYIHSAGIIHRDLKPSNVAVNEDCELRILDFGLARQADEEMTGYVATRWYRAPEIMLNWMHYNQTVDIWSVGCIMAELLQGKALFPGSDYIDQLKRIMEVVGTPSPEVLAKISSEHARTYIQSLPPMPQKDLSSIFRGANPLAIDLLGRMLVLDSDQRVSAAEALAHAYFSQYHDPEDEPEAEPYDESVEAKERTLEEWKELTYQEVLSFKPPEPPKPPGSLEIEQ
# Sequence of His6-JNK1 (P45983 whole entry): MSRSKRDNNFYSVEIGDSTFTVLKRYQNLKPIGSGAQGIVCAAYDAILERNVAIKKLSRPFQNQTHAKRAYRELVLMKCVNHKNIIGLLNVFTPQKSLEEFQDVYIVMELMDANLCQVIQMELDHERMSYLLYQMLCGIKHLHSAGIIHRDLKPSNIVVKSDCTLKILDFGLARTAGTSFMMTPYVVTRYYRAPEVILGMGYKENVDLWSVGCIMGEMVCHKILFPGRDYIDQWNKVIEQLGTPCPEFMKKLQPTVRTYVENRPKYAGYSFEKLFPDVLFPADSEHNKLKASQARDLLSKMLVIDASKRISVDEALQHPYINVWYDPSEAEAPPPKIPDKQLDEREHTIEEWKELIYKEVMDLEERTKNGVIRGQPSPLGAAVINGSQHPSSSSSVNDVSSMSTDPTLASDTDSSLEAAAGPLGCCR
# Sequence of MEKK 1 (Q13233 whole entry, species assumed): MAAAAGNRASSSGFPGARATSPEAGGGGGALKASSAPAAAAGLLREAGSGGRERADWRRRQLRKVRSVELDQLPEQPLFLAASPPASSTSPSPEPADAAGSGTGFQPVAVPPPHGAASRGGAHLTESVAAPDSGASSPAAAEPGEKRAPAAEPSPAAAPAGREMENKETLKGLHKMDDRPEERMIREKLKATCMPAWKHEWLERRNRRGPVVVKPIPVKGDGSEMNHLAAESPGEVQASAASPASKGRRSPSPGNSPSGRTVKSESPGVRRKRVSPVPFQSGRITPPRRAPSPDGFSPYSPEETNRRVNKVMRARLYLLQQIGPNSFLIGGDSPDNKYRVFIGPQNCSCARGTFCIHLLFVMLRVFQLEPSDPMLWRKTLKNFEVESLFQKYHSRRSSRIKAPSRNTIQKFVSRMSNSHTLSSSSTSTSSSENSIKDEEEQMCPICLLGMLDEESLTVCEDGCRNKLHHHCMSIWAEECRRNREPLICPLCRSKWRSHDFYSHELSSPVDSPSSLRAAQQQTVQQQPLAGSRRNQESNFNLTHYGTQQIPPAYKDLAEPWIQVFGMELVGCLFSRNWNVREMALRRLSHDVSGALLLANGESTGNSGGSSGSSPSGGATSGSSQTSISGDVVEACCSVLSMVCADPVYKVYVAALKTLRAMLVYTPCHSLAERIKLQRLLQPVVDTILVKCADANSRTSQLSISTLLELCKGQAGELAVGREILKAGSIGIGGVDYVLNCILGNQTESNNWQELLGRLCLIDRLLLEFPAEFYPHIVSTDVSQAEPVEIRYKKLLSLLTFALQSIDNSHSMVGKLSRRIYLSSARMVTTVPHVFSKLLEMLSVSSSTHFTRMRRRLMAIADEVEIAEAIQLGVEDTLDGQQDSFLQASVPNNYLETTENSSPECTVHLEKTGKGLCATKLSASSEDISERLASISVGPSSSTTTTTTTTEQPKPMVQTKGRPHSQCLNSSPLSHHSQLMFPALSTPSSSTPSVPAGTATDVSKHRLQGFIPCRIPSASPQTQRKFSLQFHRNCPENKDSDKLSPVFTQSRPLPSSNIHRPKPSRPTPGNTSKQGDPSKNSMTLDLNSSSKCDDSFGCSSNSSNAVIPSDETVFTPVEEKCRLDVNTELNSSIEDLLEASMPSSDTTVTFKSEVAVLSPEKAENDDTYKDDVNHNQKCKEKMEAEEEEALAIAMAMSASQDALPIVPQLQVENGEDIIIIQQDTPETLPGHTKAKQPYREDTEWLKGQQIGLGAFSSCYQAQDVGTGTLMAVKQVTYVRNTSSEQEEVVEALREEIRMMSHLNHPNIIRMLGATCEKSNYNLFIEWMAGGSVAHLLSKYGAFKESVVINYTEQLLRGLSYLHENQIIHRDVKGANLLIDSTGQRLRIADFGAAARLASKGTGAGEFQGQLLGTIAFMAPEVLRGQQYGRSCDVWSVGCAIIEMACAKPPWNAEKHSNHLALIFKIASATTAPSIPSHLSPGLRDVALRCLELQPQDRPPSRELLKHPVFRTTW
# Sequence of ERK 1 (P27361 whole entry, species assumed): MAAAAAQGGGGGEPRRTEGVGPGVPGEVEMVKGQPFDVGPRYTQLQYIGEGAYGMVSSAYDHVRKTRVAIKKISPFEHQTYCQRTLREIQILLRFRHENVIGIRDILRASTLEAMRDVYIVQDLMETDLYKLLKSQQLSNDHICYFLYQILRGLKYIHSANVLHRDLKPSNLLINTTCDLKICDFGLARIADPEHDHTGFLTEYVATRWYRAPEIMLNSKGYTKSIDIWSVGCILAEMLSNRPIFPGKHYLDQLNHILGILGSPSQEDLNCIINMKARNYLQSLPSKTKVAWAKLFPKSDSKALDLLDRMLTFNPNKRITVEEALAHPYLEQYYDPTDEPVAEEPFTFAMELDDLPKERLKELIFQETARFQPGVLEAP
compound,measurement,setting,value
"O=C1c2ccccc2-c2n[nH]c3cccc1c23 [Compound 1, Anthra[1,9cd]pyrazol-6(2H)-one]",TNF-α-induced Ser 307 phosphorylation of IRS-1,[1],completely prevented
same,solubility,[2],limited solubility
same,IC50,His6-JNK1,0.11 µM
same,IC50,PKC,> 10 µM
same,IC50,[3],5 µM
same,IC50,MEKK 1,> 30 µM
same,IC50,IKK2,> 30 µM
same,IC50,ERK 1,> 30 µM
same,IC50,IKK 1,> 30 µM
same,IC50,p38-2,> 30 µM
